From PubChem BioAssay (NCI)
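Where inhibition never reached the appropriate level, the endpoint shown equals the highest concentration tested. Otherwise, values were interpolated linearly from a five-concentration, 48-hour dose response in 96-well plates. TGI: total growth inhibition.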

Assays:
Assay in all cases: DTP human tumour cell line panel, 48 h
DMS 114 small cell lung = tested on: DMS 114 small cell lung
M19-MEL melanoma = tested on: M19-MEL melanoma
LXFL 529 NSCLC = tested on: LXFL 529 NSCLC
DMS 273 small cell lung = tested on: DMS 273 small cell lung
HOP-18 NSCLC = tested on: HOP-18 NSCLC
RXF-631 renal = tested on: RXF-631 renal
MDA-N = tested on: MDA-N

S=C=NCCc1ccccc1
TGI (DMS 114 small cell lung): 1.97 µM
TGI (M19-MEL melanoma): 2.95 µM
TGI (LXFL 529 NSCLC): 0.774 µM
TGI (DMS 273 small cell lung): 1.1 µM

COC1OC(C)C2OC(C)(C)OC2C1OC(C)=O (stereo unspecified)
TGI (HOP-18 NSCLC): > 100 µM
TGI (RXF-631 renal): > 100 µM
TGI (M19-MEL melanoma): > 100 µM
TGI (LXFL 529 NSCLC): > 100 µM
TGI (DMS 273 small cell lung): > 100 µM

Cn1c(=S)c2[nH]c(SCCN3C(=O)c4ccccc4C3=O)nc2n(C)c1=O
TGI (MDA-N): > 100 µM

Clc1ccccc1C(Nc1ncccn1)Nc1ncccn1
TGI (MDA-N): > 100 µM

c1ccc(P(=C2c3ccccc3-c3ccccc32)(c2ccccc2)c2ccccc2)cc1
TGI (DMS 114 small cell lung): 7.78 µM
TGI (HOP-18 NSCLC): 80 µM
TGI (RXF-631 renal): 28.9 µM
TGI (M19-MEL melanoma): 20.3 µM
TGI (LXFL 529 NSCLC): 20 µM
TGI (DMS 273 small cell lung): 19.2 µM

CN(C)c1ccc(C(c2ccc(Cl)cc2)c2ccc(N(C)C)cc2)cc1
TGI (MDA-N): > 100 µM

O=C(C/C(CCC(=O)N(Cc1ccccc1)Cc1ccccc1)=N/Nc1ccc([N+](=O)[O-])cc1[N+](=O)[O-])c1ccccc1
TGI (DMS 114 small cell lung): > 100 µM
TGI (HOP-18 NSCLC): > 100 µM
TGI (M19-MEL melanoma): > 100 µM
TGI (LXFL 529 NSCLC): > 100 µM
TGI (DMS 273 small cell lung): > 100 µM

CC[N+](C)(CC)CC(C)(C)C(=O)/C=C/c1ccc(/C=C/C(=O)C(C)(C)C[N+](C)(CC)CC)cc1
TGI (DMS 114 small cell lung): > 100 µM
TGI (RXF-631 renal): > 100 µM
TGI (M19-MEL melanoma): > 100 µM
TGI (LXFL 529 NSCLC): > 100 µM
TGI (DMS 273 small cell lung): > 100 µM

Cc1nc2sccn2c1C(=O)NC(=O)Nc1ccc(Cl)cc1
TGI (DMS 114 small cell lung): > 100 µM
TGI (M19-MEL melanoma): > 100 µM
TGI (LXFL 529 NSCLC): > 100 µM
TGI (DMS 273 small cell lung): > 100 µM

O=C1C2C3C=C4c5ccccc5N(c5ccccc5)C4(C2C(=O)N1c1ccc(Br)cc1)[C@H]1C(=O)N(c2ccc(Br)cc2)C(=O)[C@@H]31 (stereo partly specified)
TGI (HOP-18 NSCLC): > 100 µM
TGI (LXFL 529 NSCLC): > 100 µM
TGI (DMS 273 small cell lung): > 100 µM

CC12CCC3c4cc(Br)c(O)c(Br)c4CCC3C1CCC2O (stereo unspecified)
TGI (MDA-N): 14.2 µM

CCCCCCCCCCCCCC(=O)CSCCNC(=O)CCNC(=O)[C@@H](O)C(C)(C)COP(=O)(O)OP(=O)(O)OCC1OC(n2cnc3c(N)ncnc32)C(O)C1OP(=O)(O)O (stereo partly specified)
TGI (DMS 114 small cell lung): 33.3 µM
TGI (HOP-18 NSCLC): 31.7 µM
TGI (M19-MEL melanoma): 35.3 µM
TGI (LXFL 529 NSCLC): 32.5 µM
TGI (DMS 273 small cell lung): 26.2 µM

Cn1c(=O)c2[nH]cnc2n(CC(N)=O)c1=O
TGI (DMS 114 small cell lung): > 100 µM
TGI (M19-MEL melanoma): > 100 µM
TGI (LXFL 529 NSCLC): > 100 µM
TGI (DMS 273 small cell lung): > 100 µM

O=C1c2ccccc2C(=O)c2c(NCC3CO3)ccc(NCC3CO3)c21 (stereo unspecified)
TGI (MDA-N): 2.52 µM

CN(C)CCNC(=O)c1cccc2ccc(-c3ccc(-c4ccccc4)cc3)nc12
TGI (DMS 114 small cell lung): 3.07 µM
TGI (HOP-18 NSCLC): 26.4 µM
TGI (RXF-631 renal): 3.99 µM
TGI (M19-MEL melanoma): 3.23 µM
TGI (LXFL 529 NSCLC): 3.39 µM
TGI (DMS 273 small cell lung): 3.24 µM

COC(=O)/C=c1\s/c(=C\C(=O)OC)c2ccccc12
TGI (DMS 114 small cell lung): > 100 µM
TGI (HOP-18 NSCLC): > 100 µM
TGI (RXF-631 renal): > 100 µM
TGI (M19-MEL melanoma): > 100 µM
TGI (LXFL 529 NSCLC): > 100 µM
TGI (DMS 273 small cell lung): > 100 µM

C[C@]12CCNC(=O)C=C1CC[C@@H]1C2CC[C@@]2(C)C1CC[C@@H]2OC(=O)COc1ccc(N(CCCl)CCCl)cc1 (stereo partly specified)
TGI (HOP-18 NSCLC): 47.7 µM
TGI (RXF-631 renal): > 88.8 µM
TGI (M19-MEL melanoma): 18.6 µM
TGI (MDA-N): 29 µM
TGI (LXFL 529 NSCLC): 21.8 µM
TGI (DMS 273 small cell lung): 12.2 µM

Cc1ccc(C)c(NC(=O)CC2SC(=Nc3ccccc3Cl)NC2=O)c1 (stereo unspecified)
TGI (DMS 114 small cell lung): > 100 µM
TGI (HOP-18 NSCLC): > 100 µM
TGI (RXF-631 renal): > 100 µM
TGI (M19-MEL melanoma): > 100 µM
TGI (LXFL 529 NSCLC): > 100 µM
TGI (DMS 273 small cell lung): > 100 µM

CCN(CC)CCn1[nH]c2c3ccc(=O)cc3sc3c(NCCN)ccc1c32
TGI (DMS 114 small cell lung): 1.52 µM
TGI (HOP-18 NSCLC): 13.6 µM
TGI (M19-MEL melanoma): 1.48 µM
TGI (LXFL 529 NSCLC): 1.77 µM

O=C1c2ccccc2C(=O)c2sc(Nc3ccccc3Cl)nc21
TGI (HOP-18 NSCLC): 27.2 µM
TGI (RXF-631 renal): 40.6 µM
TGI (M19-MEL melanoma): 3.17 µM
TGI (MDA-N): 6.13 µM
TGI (LXFL 529 NSCLC): 5.56 µM
TGI (DMS 273 small cell lung): 31.9 µM

NNC(=O)c1ccc(OCc2nc3ccccc3[nH]2)cc1
TGI (MDA-N): > 100 µM

C=C(C)C(=O)O[C@@H]1C/C(C)=C\[C@H](OC(C)=O)C[C@](C)(O)/C=C2/OC(=O)C(COC(C)=O)=C21
TGI (MDA-N): 1.98 µM

C=CCOC(=O)C1CCC(=O)N1C(=O)C(Cl)Cl (stereo unspecified)
TGI (DMS 114 small cell lung): > 100 µM
TGI (HOP-18 NSCLC): > 100 µM
TGI (M19-MEL melanoma): > 100 µM
TGI (LXFL 529 NSCLC): > 100 µM
TGI (DMS 273 small cell lung): > 100 µM

Nc1nc(N)c2cc(Sc3cccc(C(F)(F)F)c3)ccc2n1
TGI (MDA-N): 13.9 µM

N#Cc1ccc2cc3c(cc2c1)OCO3
TGI (DMS 114 small cell lung): > 100 µM
TGI (RXF-631 renal): > 100 µM
TGI (M19-MEL melanoma): > 100 µM
TGI (LXFL 529 NSCLC): > 100 µM
TGI (DMS 273 small cell lung): > 100 µM

COC1C2c3cc4c(cc3CC(C#N)(c3ccccc32)N1C(=O)c1ccccc1)OCO4 (stereo unspecified)
TGI (DMS 114 small cell lung): > 100 µM
TGI (HOP-18 NSCLC): > 100 µM
TGI (RXF-631 renal): > 100 µM
TGI (LXFL 529 NSCLC): > 100 µM
TGI (DMS 273 small cell lung): > 100 µM

O=C(CCc1nnc2s/c(=C\c3ccccc3Cl)c(=O)n12)Nc1cc(Cl)ccc1Cl
TGI (DMS 114 small cell lung): > 100 µM
TGI (HOP-18 NSCLC): > 100 µM
TGI (M19-MEL melanoma): > 100 µM
TGI (LXFL 529 NSCLC): > 100 µM

COc1cccc2c1C(=O)OC2c1cccc2ccccc12 (stereo unspecified)
TGI (DMS 114 small cell lung): > 100 µM
TGI (HOP-18 NSCLC): > 100 µM
TGI (M19-MEL melanoma): > 100 µM
TGI (MDA-N): > 100 µM
TGI (LXFL 529 NSCLC): > 100 µM
TGI (DMS 273 small cell lung): > 100 µM

CN(/N=C/c1cccc2cccnc12)c1c([N+](=O)[O-])cc([N+](=O)[O-])cc1[N+](=O)[O-]
TGI (DMS 114 small cell lung): > 100 µM
TGI (HOP-18 NSCLC): > 100 µM
TGI (RXF-631 renal): > 100 µM
TGI (M19-MEL melanoma): > 100 µM
TGI (LXFL 529 NSCLC): > 100 µM
TGI (DMS 273 small cell lung): > 100 µM

Cc1cccc(NC(=O)/C=C/c2ccc([N+](=O)[O-])cc2)c1
TGI (MDA-N): > 52.2 µM

Oc1[nH]c2ccccc2c1N=Nc1c(F)c(F)c(F)c(F)c1F
TGI (MDA-N): > 100 µM
